Assays:
Test in all cases: -log10 GI50 (growth inhibition 50%) (-log10(M)); higher = more potent growth inhibition
LY2 = system: LY2
How it was run: (§1)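 A value carrying a < qualifier equals the top dose tested. Each compound was tested in triplicate on breast cancer cell lines for 72 hours at nine doses in 1:5 serial dilution, using a luminescence read-out against a time-zero plate. Nonlinear least squares fitting of a Gompertz curve gave GI50, the molar concentration causing the set level of growth inhibition, which is reported as its negative logarithm. The logarithm is base 10.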

HCC2185 = system: HCC2185
How it was run: as §1

BT483 = system: BT483
How it was run: as §1

HCC1428 = system: HCC1428
How it was run: as §1

MDAMB157 = system: MDAMB157
How it was run: as §1

HCC1937 = system: HCC1937
How it was run: as §1

BT549 = system: BT549
How it was run: as §1

SUM225CWN = system: SUM225CWN
How it was run: as §1

MCF10F = system: MCF10F
How it was run: as §1

SUM149PT = system: SUM149PT
How it was run: as §1

SUM1315MO2 = system: SUM1315MO2
How it was run: as §1

UACC812 = system: UACC812
How it was run: as §1

HCC1143 = system: HCC1143
How it was run: as §1

HCC70 = system: HCC70
How it was run: as §1

BT474 = system: BT474
How it was run: as §1

HCC1395 = system: HCC1395
How it was run: as §1

MCF12A = system: MCF12A
How it was run: as §1

MDAMB415 = system: MDAMB415
How it was run: as §1

HCC38 = system: HCC38
How it was run: as §1

HCC1954 = system: HCC1954
How it was run: as §1

Structure (SMILES)	-log10 GI50 (LY2)	-log10 GI50 (HCC2185)	-log10 GI50 (BT483)	-log10 GI50 (HCC1428)	-log10 GI50 (MDAMB157)	-log10 GI50 (HCC1937)	-log10 GI50 (BT549)	-log10 GI50 (SUM225CWN)	-log10 GI50 (MCF10F)	-log10 GI50 (SUM149PT)	-log10 GI50 (SUM1315MO2)	-log10 GI50 (UACC812)	-log10 GI50 (HCC1143)	-log10 GI50 (HCC70)	-log10 GI50 (BT474)	-log10 GI50 (HCC1395)	-log10 GI50 (MCF12A)	-log10 GI50 (MDAMB415)	-log10 GI50 (HCC38)	-log10 GI50 (HCC1954)
CNC(=O)c1c(F)cccc1Nc1nc(Nc2cc3c(cc2OC)CCN3C(=O)CN(C)C)nc2[nH]ccc12	6.27	5.39	5.49	5.79	5.06	4.71	5.21	4.9	6.31	5.41	5.1	5.31	5.56	5.18	5.08	5.33	5.74	5.32	5	5.06
COc1cccc(-c2cc(=O)c3ccccc3o2)c1N	< 4.3	5.06	4.52	< 4	< 4.3	4.5	4.36	4.64	< 4.3	4.66	< 4.3	4.65	< 4	< 4.3	4.58	< 4	< 4.3	4.6	4.29	< 4.3
COc1ncc(-c2ccc3nccc(-c4ccnnc4)c3c2)cc1NS(=O)(=O)c1ccc(F)cc1F	7.94	8.04	8.94	7.57	6.51	7.57	7.32	8.79	8.67	7.64	8.02	8.49	7.43	8.13	8.36	7.31	8.09	5.86	7.61	8.04
O=C1C(Cl)=C(NCCN2CCOCC2)C(=O)c2ncccc21	6.27	5.97	6.19	5.44	5.87	6.07	5.8	5.64	5.6	5.69	5.96	5.6	5.7	5.52	5.56	6.15	5.76	5.59	5.64	5.22
O=C1NC(=O)/C(=C/c2ccc(-c3ccc(F)cc3O)o2)S1	4.51	4.91	4.77	5.34	< 4.48	< 4.18	< 4.48	5.47	< 4.48	5	4.92	4.88	< 4.18	4.67	5.41	4.22	4.68	< 4.48	< 4.18	5.46
Cn1cnc2c(F)c(Nc3ccc(Br)cc3Cl)c(C(=O)NOCCO)cc21 [AZD6244]	< 4.3	< 4.3	< 4.3	< 4.3	< 4.3	< 4.3	< 4.3	< 4.3	5.62	6.32	5.57	< 4.3	< 4.3	5.75	< 4.3	4.42	6.69	4.96	< 4.3	5.84
O=c1[nH]c2ccccc2n1C1CCN(Cc2ccc(-c3[nH]c4cc5ncnc5cc4nc3-c3ccccc3)cc2)CC1 [Akt inhibitor VIII]	5.85	5.86	6.2	5.35	4.86	5	5.08	6.16	5.42	4.96	5.34	5.45	4.87	5.74	6.08	5.25	5.01	5.7	4.9	5.08
Cn1c(=O)n(-c2ccc(C(C)(C)C#N)cc2)c2c3cc(-c4cnc5ccccc5c4)ccc3ncc21 [BEZ235]	6.8	7.24	5.87	5.51	6.55	< 4.48	< 4.48	6.68	< 4.48	6.5	6.49	5.69	< 4.48	6.8	6.65	< 4.48	6.33	6.79	< 4.48	7.28
CN(C)C/C=C/C(=O)Nc1cc2c(Nc3ccc(F)c(Cl)c3)ncnc2cc1O[C@H]1CCOC1 [BIBW2992]	5.65	5.86	5.78	5.76	5.61	5.68	5.87	8.03	7.01	7.13	6.79	8.55	5.86	6.33	8.23	5.93	7.06	5.86	5.74	6.91
COc1cc(Nc2c(C#N)cnc3cc(OCCCN4CCN(C)CC4)c(OC)cc23)c(Cl)cc1Cl [Bosutinib]	5.66	5.3	5.43	5.43	5.88	5.84	5.95	5.81	5.75	6.13	6.12	5.56	5.31	6.03	5.71	5.93	5.99	5.73	6.05	5.92
C#Cc1cccc(Nc2ncnc3cc(OCCOC)c(OCCOC)cc23)c1 [Erlotinib]	< 4.18	4.71	4.78	4.75	< 4.18	4.41	4.39	4.89	6.54	5.7	5.03	4.91	4.24	5.76	4.98	4.53	6.27	< 4.18	< 4.18	5.55
CO[C@H]1C[C@@H]2CC[C@@H](C)[C@@](O)(O2)C(=O)C(=O)N2CCCC[C@H]2C(=O)O[C@H]([C@H](C)C[C@@H]2CC[C@@H](OCCO)[C@H](OC)C2)CC(=O)[C@H](C)/C=C(\C)[C@@H](O)[C@@H](OC)C(=O)[C@H](C)C[C@H](C)/C=C/C=C/C=C/1C [Everolimus]	7.52	7.93	5.55	5.06	4.63	6.1	6.88	7.62	6	5.42	5.23	7.49	5.83	6.96	7.52	4.98	4.87	8.12	6.25	
CSCC[C@H](NC(=O)[C@H](Cc1ccccc1)NC[C@@H](NC[C@@H](N)CS)C(C)C)C(=O)O [FTase inhibitor I]	< 4.48	< 4.48	< 4.48	< 4.48	< 4.18	< 4.48	< 4.18	4.49	< 4.48	4.76	< 4.18	< 4.48	< 4.48	< 4.18	< 4.18	< 4.18	< 4.18	< 4.18	< 4.48	< 4.48
CC(C(C)N1CC(=O)NC(=O)C1)N1CC(=O)NC(=O)C1 (centres undefined) [ICRF-193]	5.97	5.71	< 4.3	< 4.3	5.16	< 4.3	< 4.3	< 4.48	< 4.3	5.59	6.35	< 4.48	< 4.3	< 4.3	< 4.3	4.69	6.71	5.39	6.53	4.82
CCCCCN(C)CCC(O)(P(=O)(O)O)P(=O)(O)O [Ibandronate sodium]	3.9	4.92	4.24	3.89	4.36	4.53	4.53	3.3	3.81	3.76	4.29	3.83	4.38	4.2	3.98	4.89	3.73	4.29	4.3	4.26
Cc1ccc(NC(=O)c2ccc(CN3CCN(C)CC3)cc2)cc1Nc1nccc(-c2cccnc2)n1 [Imatinib]	4.65	4.82	3.82	4.8	4.76	4.69	4.45	4.9	4.71	4.67	4.63	4.98	4.53	4.77	4.52	4.77	4.37	4.64	4.45	5.04
C/C(=C\c1csc(C)n1)[C@@H]1C[C@@H]2O[C@]2(C)CCC[C@H](C)[C@H](O)[C@@H](C)C(=O)C(C)(C)[C@@H](O)CC(=O)N1 [Ixabepilone]	8.22	8.32	5.27	7.23	8.33	6.76	8.26	5.96	8.08	8.26	8.22	5.24	8.01	8.85	8.42	7.96	8.13	8.41	8.55	8.71
C[C@]12O[C@H](C[C@]1(O)CO)n1c3ccccc3c3c4c(c5c6ccccc6n2c5c31)CNC4=O [Lestaurtinib]	6.6	5.52	6.21	6.3	6.46	6.21	6.19	6.03	5.72	7.12	7.45	5.75	6.48	6.71	6.61	6.91	6.33	6.46	7.06	5.31
NS(=O)(=O)OC[C@@H]1C[C@@H](n2ccc3c(N[C@H]4CCc5ccccc54)ncnc32)C[C@@H]1O [MLN4924]	7	5.62	5.53	6.94	7.25	5.58	6.54	5.28	6.2	6.73	5.67	5.98	6.58	5.47	6.24	5.73	7.04	6.95	7.3	5.35
COc1ccc(C2=N[C@@H](c3ccc(Cl)cc3)[C@@H](c3ccc(Cl)cc3)N2C(=O)N2CCNC(=O)C2)c(OC(C)C)c1 [Nutlin 3a]	5.29	4.81	5.19	4.5	4.76	4.65	4.37	4.69	5.18	4.56	4.75	5.45	4.67	4.73	4.8	4.65	5.82	4.46	4.67	4.76
O=C(/C=C/C#Cc1cccc(NS(=O)(=O)c2ccccc2)c1)NO [Oxamflatin]	5.89	6.47	6.27	6.33	6.13	5.84	5.96	6.06	5.41	6.23	5.64	5.75	6.28	6.36	6.57	5.67	5.76	6.22	6.77	5.81
Nc1nc2[nH]cc(CCc3ccc(C(=O)N[C@@H](CCC(=O)O)C(=O)O)cc3)c2c(=O)[nH]1 [Pemetrexed]	6.33	< 2.53	< 2.53	< 2.53	< 2.53	3.17	< 2.53	< 2.53	< 2.53	< 2.53	< 2.53	< 2.53	< 2.53	< 2.53	< 2.53	< 2.53	6.72	< 2.53	< 2.53	< 2.53

— the supplement of paper PMC3937590
